# Assay results: patent US11312719B2, “9-substituted amino triazolo quinazoline derivatives as adenosine receptor antagonists, pharmaceutical compositions and their use” (Merck Sharp & Dohme Corp., priority 2018, dated 2022)
# Experiments:
# [1] = molecular target: human A2a adenosine receptor (Homo sapiens (Human), UniProt P29274); test: A2a receptor affinity radioligand binding assay ([3H] SCH58261); conditions: membranes from HEK293 or CHO cells expressing human A2a receptor
# Procedure, shortened: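 Membranes from HEK293 or CHO cells expressing human A2a were preincubated 15–30 min at room temperature with compound, then incubated 60 min at room temperature with [3H]SCH58261 (diluted to 4 nM) in 50 mM Tris pH 7.4, 10 mM MgCl2, 0.005% Tween20. Bound radioactivity was collected by filtration; nonspecific binding defined with 1 μM ZM241385; IC50 from 4-parameter logistic fit.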
# [2] = molecular target: human A2b adenosine receptor (Homo sapiens (Human), UniProt P29275); test: A2b radioligand filtration binding assay; conditions: membranes from HEK293 cells expressing human A2b receptor
# Procedure, shortened: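 Membranes from HEK293 cells expressing human A2b receptor preincubated with compound 15 to 30 min at room temperature, then tritiated proprietary A2b antagonist (diluted to 14 nM before addition) added in PBS pH 7.4 for 60 min at room temperature. Bound radioactivity by filtration and scintillation; non-specific binding with 20 μM NECA; IC50 by 4-parameter logistic fit.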
# human A2b adenosine receptor, sequence (P29275 whole entry): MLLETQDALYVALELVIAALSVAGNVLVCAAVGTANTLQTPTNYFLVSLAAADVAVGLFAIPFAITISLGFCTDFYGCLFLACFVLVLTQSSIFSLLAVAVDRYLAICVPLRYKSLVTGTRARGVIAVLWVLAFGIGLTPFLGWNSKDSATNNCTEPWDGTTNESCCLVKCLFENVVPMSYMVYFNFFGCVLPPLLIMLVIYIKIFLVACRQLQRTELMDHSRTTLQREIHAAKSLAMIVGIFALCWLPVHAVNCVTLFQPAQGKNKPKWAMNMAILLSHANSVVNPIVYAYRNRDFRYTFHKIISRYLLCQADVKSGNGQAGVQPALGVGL
# human A2a adenosine receptor, sequence (P29274 whole entry): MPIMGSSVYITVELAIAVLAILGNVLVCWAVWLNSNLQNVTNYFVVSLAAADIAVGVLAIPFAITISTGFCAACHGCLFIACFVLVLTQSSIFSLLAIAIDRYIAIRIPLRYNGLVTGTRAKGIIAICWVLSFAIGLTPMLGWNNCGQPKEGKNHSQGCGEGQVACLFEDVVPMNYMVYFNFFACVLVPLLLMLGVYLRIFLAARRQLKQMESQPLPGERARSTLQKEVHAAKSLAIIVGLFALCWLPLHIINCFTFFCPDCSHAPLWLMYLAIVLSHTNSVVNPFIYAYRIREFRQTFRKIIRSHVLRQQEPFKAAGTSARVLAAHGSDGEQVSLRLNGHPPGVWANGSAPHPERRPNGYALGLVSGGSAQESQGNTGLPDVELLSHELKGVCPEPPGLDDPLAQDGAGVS
SMILES,IC50 [1],IC50 [2]
"COc1cccc2c1nc(N)n1nc([C@@H]3CCC[C@](O)(c4cnn(CC(C)(C)O)c4)C3)nc21 (single isomer, unassigned) [Example 150, (1R,3R or 1S,3S)-3-(5-amino-7-methoxy-[1,2,4]triazolo[1,5-c]quinazolin-2-yl)-1-(1-(2-hydroxy-2-methylpropyl)-1H-pyrazol-4-yl)cyclohexan-1-ol]",1.4 nM,181 nM
"COc1cc2nc(N)n3nc([C@@H]4CCCN(c5ncn(CC(C)(C)O)n5)C4)nc3c2cc1F [Example 1, (R)-1-(3-(3-(5-amino-9-fluoro-8-methoxy-[1,2,4]triazolo[1,5-c]quinazolin-2-yl)piperidin-1-yl)-1H-1,2,4-triazol-1-yl)-2-methylpropan-2-ol]",7.5 nM,554 nM
"COc1cc2nc(N)n3nc([C@@H]4CCCN(c5cnn(C)c5)C4)nc3c2cc1F [Example 2, (R)-9-fluoro-8-methoxy-2-(1-(1-methyl-1H-pyrazol-4-yl)piperidin-3-yl)-[1,2,4]triazolo[1,5-c]quinazolin-5-amine]",3.7 nM,9.4 nM
"COc1cc2nc(N)n3nc([C@@H]4CCCN(c5cnn(C(C)(C)C)c5)C4)nc3c2cc1F [Example 3, (R)-2-(1-(1-(tert-butyl)-1H-pyrazol-4-yl)piperidin-3-yl)-9-fluoro-8-methoxy-[1,2,4]triazolo[1,5-c]quinazolin-5-amine]",1.5 nM,180 nM

# Next, values leading:
IC50 [1],IC50 [2],SMILES
2.1 nM,137 nM,"CCn1cc([C@@]2(O)CCCC(c3nc4c5cc(F)c(OC)cc5nc(N)n4n3)C2)cn1 (single isomer, unassigned) [Example 146, (1R or 1S,3R or 3S)-3-(5-amino-9-fluoro-8-methoxy-[1,2,4]triazolo[1,5-c]quinazolin-2-yl)-1-(1-ethyl-1H-pyrazol-4-yl)cyclohexan-1-ol]"
870 nM,6330 nM,"CCn1cc([C@]2(O)CCC[C@H](c3nc4c5cc(F)c(OC)cc5nc(N)n4n3)C2)cn1 (single isomer, unassigned) [Example 147, (1S or 1R,3S or 3R)-3-(5-amino-9-fluoro-8-methoxy-[1,2,4]triazolo[1,5-c]quinazolin-2-yl)-1-(1-ethyl-1H-pyrazol-4-yl)cyclohexan-1-ol]"
385 nM,4430 nM,"CCn1cc([C@]2(O)CCC[C@@H](c3nc4c5cc(F)c(OC)cc5nc(N)n4n3)C2)cn1 (single isomer, unassigned) [Example 148, (1S or 1R,3R or 3S)-3-(5-amino-9-fluoro-8-methoxy-[1,2,4]triazolo[1,5-c]quinazolin-2-yl)-1-(1-ethyl-1H-pyrazol-4-yl)cyclohexan-1-ol]"
1.8 nM,96.6 nM,"CCn1cc([C@]2(O)CCC[C@@H](c3nc4c5cc(F)c(OC)cc5nc(N)n4n3)C2)cn1 (single isomer, unassigned) [Example 149, (1S or 1R,3R or 3S)-3-(5-amino-9-fluoro-8-methoxy-[1,2,4]triazolo[1,5-c]quinazolin-2-yl)-1-(1-ethyl-1H-pyrazol-4-yl)cyclohexan-1-ol]"
4.6 nM,2.6 nM,"COc1cc2nc(N)n3nc([C@@H]4CCCN(c5cnn(C(C)C)c5)C4)nc3c2cc1F [Example 4, (R)-9-fluoro-2-(1-(1-isopropyl-1H-pyrazol-4-yl)piperidin-3-yl)-8-methoxy-[1,2,4]triazolo[1,5-c]quinazolin-5-amine]"
3.3 nM,1.6 nM,"COc1cc2nc(N)n3nc([C@@H]4CCCN(c5cnn(CC(F)(F)F)c5)C4)nc3c2cc1F [Example 5, (R)-9-fluoro-8-methoxy-2-(1-(1-(2,2,2-trifluoroethyl)-1H-pyrazol-4-yl)piperidin-3-yl)[1,2,4]triazolo[1,5-c]quinazolin-5-amine]"
2 nM,85.9 nM,"COc1cc2nc(N)n3nc([C@@H]4CCCN(c5cn(C)nn5)C4)nc3c2cc1F [Example 6, (R)-9-fluoro-8-methoxy-2-(1-(1-methyl-1H-1,2,3-triazol-4-yl)piperidin-3-yl)-[1,2,4]triazolo[1,5-c]quinazolin-5-amine]"
